From PubChem BioAssay AID248 (DTP/NCI, 2004)
Inconclusive results and toxic doses are left out. Cut-off read from the data, not from the text of the source: active = T/C of 150% or more; inactive = T/C below 125%.

Tested on: L1210 leukemia ip in BDF1 mice, survival T/C
Assay: NCI In Vivo Anticancer Drug Screen. Data for tumor model L1210 Leukemia (intraperitoneal) in B6D2F1 (BDF1) mice
Conditions: endpoint: mean survival time, higher = longer survival
Procedure, shortened: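 Antitumor effect is assessed in tumor-bearing animals. Survival in the compound arm is compared with a vehicle-dosed control arm and expressed as their quotient.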

[1] = dose: 100.0 mg/kg/injection, schedule: Q01DX001 (ip), vehicle: saline
[2] = dose: 200.0 mg/kg/injection, schedule: Q01DX001 (ip), vehicle: saline
[3] = dose: 100.0 mg/kg/injection, schedule: Q01DX001 (ip), vehicle: carboxymethylcellulose (CMC)
[4] = dose: 100.0 mg/kg/injection, schedule: Q01DX009 (ip), vehicle: saline
[5] = dose: 200.0 mg/kg/injection, schedule: Q01DX009 (ip), vehicle: saline
[6] = dose: 400.0 mg/kg/injection, schedule: Q01DX009 (ip), vehicle: saline
[7] = dose: 10.0 mg/kg/injection, schedule: Q01DX009 (ip), vehicle: Klucel (hydroxypropylcellulose) (HPC)
[8] = dose: 10.0 mg/kg/injection, schedule: Q04DX003 (ip), vehicle: Klucel (hydroxypropylcellulose) (HPC)
[9] = dose: 50.0 mg/kg/injection, schedule: Q01DX009 (ip), vehicle: Klucel (hydroxypropylcellulose) (HPC)
[10] = dose: 100.0 mg/kg/injection, schedule: Q01DX009 (ip), vehicle: saline with Tween-80

Measured: T/C

COc1cc(Cc2nccc3cc(OC)c(OC)cc23)c([N+](=O)[O-])cc1OC
inactive: [1] 102 % of control | dose: 100.0 mg/kg/injection, schedule: Q04DX003 (ip), vehicle: saline sonified 106 % of control | [2] 96 % of control | dose: 200.0 mg/kg/injection, schedule: Q04DX003 (ip), vehicle: saline sonified 89 % of control | dose: 300.0 mg/kg/injection, schedule: Q01DX001 (ip), vehicle: saline 96 % of control | dose: 400.0 mg/kg/injection, schedule: Q04DX003 (ip), vehicle: saline sonified 92 % of control

CCCC[n+]1cccc2ccccc21
inactive: dose: 25.0 mg/kg/injection, schedule: Q01DX001 (ip), vehicle: Klucel (hydroxypropylcellulose) (HPC) 105 % of control | dose: 50.0 mg/kg/injection, schedule: Q01DX001 (ip), vehicle: Klucel (hydroxypropylcellulose) (HPC) 100 % of control | [3] 96 % of control

CC(=O)NCC(O)C(O)C(O)C(/C=N/Nc1ccccc1)=N/Nc1ccccc1 (centres undefined)
inactive: dose: 50.0 mg/kg/injection, schedule: Q04DX002 (ip), vehicle: saline with Tween-80 88 % of control | dose: 100.0 mg/kg/injection, schedule: Q04DX002 (ip), vehicle: saline with Tween-80 92 % of control | dose: 200.0 mg/kg/injection, schedule: Q04DX002 (ip), vehicle: saline with Tween-80 98 % of control

CCCCS(=O)(=O)N1CCCCC1
inactive: [4] 107 % of control | [5] 95 % of control | [6] 106 % of control

CCN(CC)CCSC(=S)N1c2ccccc2Sc2ccccc21
inactive: dose: 17.5 mg/kg/injection, schedule: Q01DX009 (ip), vehicle: saline 90 % of control | dose: 17.5 mg/kg/injection, schedule: Q04DX003 (ip), vehicle: Klucel (hydroxypropylcellulose) (HPC) 102 % of control | dose: 35.0 mg/kg/injection, schedule: Q01DX009 (ip), vehicle: saline 96 % of control | dose: 35.0 mg/kg/injection, schedule: Q04DX003 (ip), vehicle: Klucel (hydroxypropylcellulose) (HPC) 93 % of control | dose: 70.0 mg/kg/injection, schedule: Q01DX009 (ip), vehicle: saline 87 % of control | dose: 70.0 mg/kg/injection, schedule: Q04DX003 (ip), vehicle: Klucel (hydroxypropylcellulose) (HPC) 96 % of control | dose: 140.0 mg/kg/injection, schedule: Q01DX009 (ip), vehicle: saline 91 % of control | dose: 140.0 mg/kg/injection, schedule: Q04DX003 (ip), vehicle: Klucel (hydroxypropylcellulose) (HPC) 98 % of control | dose: 280.0 mg/kg/injection, schedule: Q04DX003 (ip), vehicle: Klucel (hydroxypropylcellulose) (HPC) 95 % of control

c1ccc2c(c1)C1=NCCN1c1ccccc1-2
inactive: [7] 101 % of control | [8] 114 % of control | dose: 20.0 mg/kg/injection, schedule: Q01DX009 (ip), vehicle: Klucel (hydroxypropylcellulose) (HPC) 111 % of control | dose: 20.0 mg/kg/injection, schedule: Q04DX003 (ip), vehicle: Klucel (hydroxypropylcellulose) (HPC) 122 % of control | dose: 40.0 mg/kg/injection, schedule: Q01DX009 (ip), vehicle: Klucel (hydroxypropylcellulose) (HPC) 105 % of control | dose: 40.0 mg/kg/injection, schedule: Q04DX003 (ip), vehicle: Klucel (hydroxypropylcellulose) (HPC) 112 % of control

COc1ccc(/C=C2\N=C(c3ccc(Cl)cc3)OC2=O)cc1Br
inactive: dose: 100.0 mg/kg/injection, schedule: Q04DX002 (ip), vehicle: saline 101 % of control | dose: 200.0 mg/kg/injection, schedule: Q04DX002 (ip), vehicle: saline 93 % of control | dose: 400.0 mg/kg/injection, schedule: Q04DX002 (ip), vehicle: saline 108 % of control

O=S(=O)(Cl)OC(CCl)C(OS(=O)(=O)Cl)C(OS(=O)(=O)Cl)C(CCl)OS(=O)(=O)Cl (centres undefined)
inactive: dose: 100.0 mg/kg/injection, schedule: Q04DX003 (ip), vehicle: saline with Tween-80 102 % of control | dose: 200.0 mg/kg/injection, schedule: Q04DX003 (ip), vehicle: saline with Tween-80 97 % of control | dose: 400.0 mg/kg/injection, schedule: Q04DX003 (ip), vehicle: saline with Tween-80 114 % of control

O=S(=O)(Nc1cc2c(nc3ccccn32)c2ccccc12)c1ccccc1
inactive: dose: 50.0 mg/kg/injection, schedule: Q01DX001 (ip), vehicle: saline 103 % of control

c1ccc2c3c(sc2c1)CNCC3
inactive: dose: 25.0 mg/kg/injection, schedule: Q01DX009 (ip), vehicle: Klucel (hydroxypropylcellulose) (HPC) 107 % of control | [9] 101 % of control

N#C/C(=C\c1c(O)ccc2ccccc12)c1ccc([N+](=O)[O-])cc1
inactive: dose: 66.0 mg/kg/injection, schedule: Q01DX009 (ip), vehicle: saline with Tween-80 89 % of control | [10] 91 % of control | dose: 150.0 mg/kg/injection, schedule: Q01DX009 (ip), vehicle: saline with Tween-80 86 % of control

O=C1c2ccsc2C(=O)c2sccc21
inactive: dose: 100.0 mg/kg/injection, schedule: Q01DX001 (ip), vehicle: saline with Tween-80 103 % of control | dose: 200.0 mg/kg/injection, schedule: Q01DX001 (ip), vehicle: saline with Tween-80 92 % of control

CON=C1CCC(C(C)(C)C)CC1 (centres undefined)
inactive: dose: 75.0 mg/kg/injection, schedule: Q01DX001 (ip), vehicle: carboxymethylcellulose (CMC) 106 % of control

COC(=O)c1cccc(F)c1C(=O)c1ccc2ccccc2c1
inactive: dose: 100.0 mg/kg/injection, schedule: Q04DX003 (ip), vehicle: Klucel (hydroxypropylcellulose) (HPC) 100 % of control | dose: 200.0 mg/kg/injection, schedule: Q04DX003 (ip), vehicle: Klucel (hydroxypropylcellulose) (HPC) 91 % of control | dose: 400.0 mg/kg/injection, schedule: Q04DX003 (ip), vehicle: Klucel (hydroxypropylcellulose) (HPC) 97 % of control

C/C=C/c1cc2c(c(=O)o1)C(=O)[C@@H](O)[C@H](C)O2
inactive: [3] 92 % of control | dose: 200.0 mg/kg/injection, schedule: Q01DX001 (ip), vehicle: carboxymethylcellulose (CMC) 103 % of control | dose: 400.0 mg/kg/injection, schedule: Q01DX001 (ip), vehicle: carboxymethylcellulose (CMC) 94 % of control

O=[N+]([O-])/C(=C/C=C/c1ccccc1)c1ccccc1
inactive: [9] 96 % of control | dose: 100.0 mg/kg/injection, schedule: Q01DX009 (ip), vehicle: Klucel (hydroxypropylcellulose) (HPC) 89 % of control | dose: 200.0 mg/kg/injection, schedule: Q01DX009 (ip), vehicle: Klucel (hydroxypropylcellulose) (HPC) 86 % of control

Cc1cnc(SCc2ccc(Cl)cc2)[nH]c1=S
inactive: dose: 25.0 mg/kg/injection, schedule: Q01DX Z (ip), vehicle: methylcellulose (MC) 87 % of control | dose: 50.0 mg/kg/injection, schedule: Q01DX Z (ip), vehicle: methylcellulose (MC) 89 % of control

CC1(C)CC2(C)CC(=O)C1C(C(=O)O)C2C(=O)O (centres undefined)
inactive: [1] 98 % of control | [4] 93 % of control | dose: 100.0 mg/kg/injection, schedule: Q04DX003 (ip), vehicle: saline 96 % of control | [2] 90 % of control | [5] 93 % of control | dose: 200.0 mg/kg/injection, schedule: Q04DX003 (ip), vehicle: saline 91 % of control | dose: 400.0 mg/kg/injection, schedule: Q01DX001 (ip), vehicle: saline 91 % of control | [6] 92 % of control | dose: 400.0 mg/kg/injection, schedule: Q04DX003 (ip), vehicle: saline 89 % of control

OCC1COCOC1
inactive: dose: 50.0 mg/kg/injection, schedule: Q01DX009 (ip), vehicle: saline 104 % of control | [4] 106 % of control | dose: 100.0 mg/kg/injection, schedule: Q04DX003 (ip), vehicle: acetone 100 % of control | [5] 106 % of control | dose: 200.0 mg/kg/injection, schedule: Q04DX003 (ip), vehicle: acetone 105 % of control | dose: 400.0 mg/kg/injection, schedule: Q04DX003 (ip), vehicle: acetone 105 % of control

Oc1ccc(C(O)(c2ccccc2)c2ccc(O)c3ccccc23)c2ccccc12
inactive: [10] 96 % of control | dose: 200.0 mg/kg/injection, schedule: Q01DX009 (ip), vehicle: saline with Tween-80 91 % of control

O=C(O)CCCC1CCCCC1.[Cu+2]
inactive: dose: 2.5 mg/kg/injection, schedule: Q01DX009 (ip), vehicle: Klucel (hydroxypropylcellulose) (HPC) 101 % of control | dose: 2.5 mg/kg/injection, schedule: Q04DX003 (ip), vehicle: Klucel (hydroxypropylcellulose) (HPC) 97 % of control | dose: 5.0 mg/kg/injection, schedule: Q01DX009 (ip), vehicle: Klucel (hydroxypropylcellulose) (HPC) 101 % of control | dose: 5.0 mg/kg/injection, schedule: Q04DX003 (ip), vehicle: Klucel (hydroxypropylcellulose) (HPC) 101 % of control | [7] 92 % of control | [8] 97 % of control
